Data published in US8389794B2, “Transgenic pig as a model of Alzheimer's disease” (Aarhus Universitet, priority 2007, dated 2013).
Where a SMILES comes first, the peptide text is derived from it. [ ]: non-standard residue; d: D form. Nle = CCCC[C@H](N)C(=O)O

How the values were obtained:
[1] = test system: APP695; assay: Western blot (antibody 6E10) of fibroblasts grown with protease inhibitors; format: cell-based, Göttingen minipig
Procedure: A Western blot using a commercial anti-APP antibody (6E10), […], was performed according to the manufacturer's recommendations. The Western blot was performed on extracts from fibroblast cells of a transgenic pig (lanes 1 and 2) and on extracts from fibroblast cells of a wt pig (lanes 3 and 4), see FIG. 10. In lane 1 the fibroblasts have been treated with the protease inhibitor ALLN, whereas the fibroblasts of lane 2 have not received treatment. […] In contrast, the lower molecular weight products are not present in similar amounts as in lane 2. Lanes 3 and 4 contain extracts of fibroblasts from wt pigs and no effect of ALLN treatment is evident in comparison to the extracts of transgenic pigs.
a) Non-transgenic donor fibroblasts (74114 cells) and fibroblasts from transgenic minipiglet No. 47 were grown to 80% confluence in a 75 cm2 flask. The cells from each flask were resuspended in 24 ml medium and transferred to a 6-well plate (TPP, Schwitzerland) with 2.5 ml of the cell suspension in each well. Medium was changed the following day with 2 ml fresh medium containing the chemical at the indicated concentration were added to the wells of both plates: well No. 1, 5 μM Lactacystin; well No. 2, 20 μM Leupeptin; well No. 3, 20 μl DMSO; well No. 4, 20 μM ALLN; well No. 5, 2.5 mM NH4Cl. After 6 hrs incubation the cells from each well were harvested and transferred to an 1.5 ml Eppendorf tube. 30 μl ddH20, 2 μl reducing agent and 8 μl loading buffer (Fermentas) were added, the tubes were placed in boiling water for 5 min. and spun at full speed for 1 min. in an Eppendorf centrifuge. 15 μl of each sample were loaded on a 4-15% polyacrylamid gel (BioRad), run at 45 mAmp for 90 min. Transfer to PVDF membrane (GE Healthcare) was done at 75 volt for 30 min., and the membrane was stained with anti-human APP monoclonal antibody 6E10 (SIGNET) at dilution 1:1000, and as secondary antibody polyclonal goat anti-mouse immunoglobulines/HRP (Dako Cytomation) at dilution 1:2000. b) Extraction of protein from brain tissue was done with 100-200 mg flash frozen cortical tissue homogenized in a tissue-grinder with 3 ml lysis buffer (Tris-HCl 50 mM, EDTA 10 mM, SDS 1%, Triton X-100 0.5%, ⅓ Protease Inhibitor Cocktail Tablet (Roche), pH 8.0). The solution was transferred to an Eppendorf tube (1 ml), centrifuged at 12,000 rpm for 2 min at 4° C. and supernatant transferred to a new tube. After vortexing the tube was frozen in dry ice for 3 min, thawed at 37° C. for 3 min, and this freeze/thaw step was repeated 3 times. Finally, the solution was centrifuged at 14,000 rpm (4° C.) for 10 min, the pellet discarded and the protein concentration of the supernatant determined. 8 μg protein extract was loaded in each lane of the polyacrylamid gel. Western blotting was done as described above. […]

[2] = molecular target: T1, β-secretase (Mus musculus, UniProt P56818); settings: oral administration, APP transgenic mice; cited from earlier work
T1 construct: host or cells: brain of APP transgenic mice (in vivo, oral dosing)
T1 sequence (P56818 46-501): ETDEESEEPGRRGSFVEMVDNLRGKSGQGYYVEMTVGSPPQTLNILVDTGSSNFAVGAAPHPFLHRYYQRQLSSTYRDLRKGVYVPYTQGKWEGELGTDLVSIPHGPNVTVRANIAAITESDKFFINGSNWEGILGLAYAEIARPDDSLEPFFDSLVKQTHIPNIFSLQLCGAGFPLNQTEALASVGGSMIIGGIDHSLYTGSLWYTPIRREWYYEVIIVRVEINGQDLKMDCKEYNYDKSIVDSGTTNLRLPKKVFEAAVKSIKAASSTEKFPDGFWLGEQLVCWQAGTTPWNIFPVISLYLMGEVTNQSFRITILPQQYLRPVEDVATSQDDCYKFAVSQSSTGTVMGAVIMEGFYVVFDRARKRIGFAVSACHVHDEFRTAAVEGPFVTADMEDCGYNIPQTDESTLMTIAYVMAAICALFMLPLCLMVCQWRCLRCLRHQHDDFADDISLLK

[3] = test system: PDAPP transgenic mouse; settings: subcutaneous immunization, 100 ug in complete Freund adjuvant; cited from earlier work

CCCC[C@@H](C=O)NC(=O)[C@H](CC(C)C)NC(=O)[C@H](CC(C)C)NC(C)=O [ALLN] (Ac-Leu-Leu-[Nle]-aldehyde)
difference in intensity of the APP695 bands, transgenic vs non-transgenic fibroblasts ([1]; 20 μM ALLN in medium, fibroblasts of transgenic piglet No. 47 vs donor cells 74114): becomes more pronounced
bands of lower molecular weight than mutated APP ([1]; ALLN treated fibroblasts of transgenic pig vs untreated): increased in intensity

CCNc1cc(C(=O)N[C@@H](Cc2ccccc2)[C@H](O)CNCc2cccc(C(F)(F)F)c2)c(F)c(N2CCCCS2(=O)=O)c1 [GSK188909]
brain Abeta [2]: significant lowering

Cl.N [ammonium chloride]
difference in intensity of the APP695 bands, transgenic vs non-transgenic fibroblasts ([1]; ammonium chloride in medium (2.5 mM NH4Cl per method), data not shown): no such effect

CC(=O)N[C@@H](CC(C)C)C(=O)N[C@@H](CC(C)C)C(=O)N[C@H](C=O)CCCNC(=N)N [leupeptin]
difference in intensity of the APP695 bands, transgenic vs non-transgenic fibroblasts ([1]; leupeptin in medium (20 μM per method), data not shown): no such effect

Abeta 1-42 antigen: Abeta 1-42 antigen in complete Freund adjuvant for active immunization
accumulation of plaques in the brain [3]: reduces the accumulation of plaques
